SMILES strings stand for the structures.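 Where inhibition never reached the appropriate level, the endpoint shown equals the highest concentration tested. Otherwise, values were interpolated linearly from a five-concentration, 48-hour dose response in 96-well plates. The concentration for full growth arrest is given as TGI.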

The first assay deals with LOX IMVI melanoma. Description: DTP human tumour cell line panel, 48 h.
Usually TGI stands for the concentration giving total growth inhibition. `CCOC(=O)CSc1ccnc(=O)[nH]1` gave a TGI greater than 100 µM.

As for `c1ccc(Nc2nnc(CSc3nc(-c4ccccc4)c(-c4ccccc4)[nH]3)s2)cc1`, the TGI amounted to 31.8 µM.

Another assay concerns SNB-75 CNS. Description: DTP human tumour cell line panel, 48 h.
Compound `O=C1C/C(=C/c2ccc(/C=C3/CC(=O)N(c4cccc(Br)c4)C3=O)cc2)C(=O)N1c1cccc(Br)c1` came in with a TGI of 53.1 µM.

Take `CCCCCCn1c(SCC)c2ccccc2c1-c1nc(F)nc(F)n1`: the TGI was greater than 100 µM.

Regarding `CN(C(=O)C12C3C4C1C1C2C3C41I)C(C)(C)C` (configuration not stated), the TGI is greater than 100 µM.

On to `Cn1c(O)c(C(=O)Nc2cccs2)c(=O)[nH]c1=S`, for which the TGI worked out at 31.3 µM.

`NCC1(N2CCOCC2)C2CCCC21CO` (configuration not stated) gave a concentration for total growth inhibition (TGI) greater than 100 µM.

Consider `C=CCONC(=O)c1ccc(Cl)cc1`, for which the TGI was greater than 100 µM.

In turn, `O=C(CC1Sc2ccccc2NC1=O)Nc1cc(Cl)ccc1Cl` (configuration not stated) yielded a TGI greater than 100 µM.

Take `COc1cc(/C=C/C(=O)c2sc(-n3nc(-c4ccccc4)cc3-c3ccccc3)nc2C)ccc1O`: the TGI was greater than 100 µM.

For the compound `O=C(CCn1[nH]c(=O)c(Cl)c(Cl)c1=O)NOCCCc1ccccc1`, the TGI is greater than 100 µM.

`COc1cc(NC(C)=O)c2[nH]c3c(C)cc(NC(C)=O)c(C)c3c2c1` gave a total growth inhibition concentration (TGI) greater than 100 µM.

The compound `COc1cc(/C=C\c2ccccn2)cc(OC)c1OC` gave a TGI greater than 100 µM.

In turn, `O=P(O)(OCC(O)O)OCC(O)O` returned a TGI greater than 100 µM.

Consider `CCOC(=O)CSc1ccnc(=O)[nH]1`, for which the TGI was greater than 100 µM.

The compound `c1ccc(Nc2nnc(CSc3nc(-c4ccccc4)c(-c4ccccc4)[nH]3)s2)cc1` registered a TGI of 85.6 µM.

The test system of another assay is IGROV1 ovarian. In words: DTP human tumour cell line panel, 48 h.
The compound `O=C1C/C(=C/c2ccc(/C=C3/CC(=O)N(c4cccc(Br)c4)C3=O)cc2)C(=O)N1c1cccc(Br)c1` had a TGI greater than 100 µM.

In turn, `CCOC(C[C@H](O)[C@H]1COC(=S)S1)OCC` displayed a TGI greater than 100 µM.

In the case of `CCCCCCn1c(SCC)c2ccccc2c1-c1nc(F)nc(F)n1`, the TGI is greater than 100 µM.

`CN(C(=O)C12C3C4C1C1C2C3C41I)C(C)(C)C` (configuration not stated) gave a TGI greater than 100 µM.

Take `Cn1c(O)c(C(=O)Nc2cccs2)c(=O)[nH]c1=S`: the TGI was 52 µM.

For the compound `CC(=O)/C(=C\c1ccco1)C(=O)Nc1ccccc1`, the TGI is greater than 100 µM.

The compound `NCC1(N2CCOCC2)C2CCCC21CO` (configuration not stated) had a concentration for total growth inhibition (TGI) greater than 100 µM.

On to `CC#COP(=O)(OCC)OCC`, for which the TGI was greater than 100 µM.

The compound `C=CCONC(=O)c1ccc(Cl)cc1` came in with a TGI greater than 100 µM.

In turn, `O=C(CC1Sc2ccccc2NC1=O)Nc1cc(Cl)ccc1Cl` (configuration not stated) yielded a TGI greater than 100 µM.

In turn, `COc1cc(/C=C/C(=O)c2sc(-n3nc(-c4ccccc4)cc3-c3ccccc3)nc2C)ccc1O` registered a TGI greater than 100 µM.

As for `O=C(CCn1[nH]c(=O)c(Cl)c(Cl)c1=O)NOCCCc1ccccc1`, the TGI is greater than 100 µM.

`CC(C)=CCCC1(C)C=Cc2c(c(C)cc3c2[nH]c2cc(O)ccc23)O1` (configuration not stated) had a TGI greater than 25 µM.

`COc1cc(NC(C)=O)c2[nH]c3c(C)cc(NC(C)=O)c(C)c3c2c1`: the TGI was greater than 100 µM.

`COc1cc(/C=C\c2ccccn2)cc(OC)c1OC`: the TGI is greater than 100 µM.

For `O=P(O)(OCC(O)O)OCC(O)O`, the TGI was greater than 100 µM.

Consider `CCOC(=O)CSc1ccnc(=O)[nH]1`, for which the TGI was greater than 100 µM.

`c1ccc(Nc2nnc(CSc3nc(-c4ccccc4)c(-c4ccccc4)[nH]3)s2)cc1` gave a TGI of 42.2 µM.

The subject of a further assay is A549 NSCLC. In words: DTP human tumour cell line panel, 48 h.
The compound `O=C1C/C(=C/c2ccc(/C=C3/CC(=O)N(c4cccc(Br)c4)C3=O)cc2)C(=O)N1c1cccc(Br)c1` had a TGI greater than 100 µM.

In turn, `CCOC(C[C@H](O)[C@H]1COC(=S)S1)OCC` showed a TGI greater than 100 µM.

As for `CCCCCCn1c(SCC)c2ccccc2c1-c1nc(F)nc(F)n1`, the TGI was greater than 100 µM.

`CN(C(=O)C12C3C4C1C1C2C3C41I)C(C)(C)C` (configuration not stated): the TGI is greater than 100 µM.

Regarding `Cn1c(O)c(C(=O)Nc2cccs2)c(=O)[nH]c1=S`, the TGI was 45 µM.

`CC(=O)/C(=C\c1ccco1)C(=O)Nc1ccccc1` came in with a TGI greater than 100 µM.

For the compound `NCC1(N2CCOCC2)C2CCCC21CO` (configuration not stated), the TGI was greater than 100 µM.

Compound `CC#COP(=O)(OCC)OCC` registered a TGI greater than 100 µM.

In turn, `C=CCONC(=O)c1ccc(Cl)cc1` returned a TGI greater than 100 µM.

`O=C(CC1Sc2ccccc2NC1=O)Nc1cc(Cl)ccc1Cl` (configuration not stated) displayed a TGI greater than 100 µM.

Take `COc1cc(/C=C/C(=O)c2sc(-n3nc(-c4ccccc4)cc3-c3ccccc3)nc2C)ccc1O`: the TGI is greater than 100 µM.

`O=C(CCn1[nH]c(=O)c(Cl)c(Cl)c1=O)NOCCCc1ccccc1` yielded a TGI greater than 100 µM.

The compound `CC(C)=CCCC1(C)C=Cc2c(c(C)cc3c2[nH]c2cc(O)ccc23)O1` (configuration not stated) showed a TGI greater than 25 µM.

The compound `COc1cc(NC(C)=O)c2[nH]c3c(C)cc(NC(C)=O)c(C)c3c2c1` had a TGI greater than 100 µM.

The compound `COc1cc(/C=C\c2ccccn2)cc(OC)c1OC` gave a total growth inhibition concentration (TGI) greater than 100 µM.

In the case of `O=P(O)(OCC(O)O)OCC(O)O`, the total growth inhibition concentration (TGI) is greater than 100 µM.

The compound `CCOC(=O)CSc1ccnc(=O)[nH]1` gave a TGI greater than 100 µM.

`c1ccc(Nc2nnc(CSc3nc(-c4ccccc4)c(-c4ccccc4)[nH]3)s2)cc1` had a TGI of 73.3 µM.

The next assay relates to COLO 205 colon. In words: DTP human tumour cell line panel, 48 h.
As to `O=C1C/C(=C/c2ccc(/C=C3/CC(=O)N(c4cccc(Br)c4)C3=O)cc2)C(=O)N1c1cccc(Br)c1`, the TGI is greater than 100 µM.

As to `CCOC(C[C@H](O)[C@H]1COC(=S)S1)OCC`, the TGI is greater than 100 µM.

Turning to `CCCCCCn1c(SCC)c2ccccc2c1-c1nc(F)nc(F)n1`, the TGI is greater than 100 µM.

Take `CN(C(=O)C12C3C4C1C1C2C3C41I)C(C)(C)C` (configuration not stated): the TGI is greater than 100 µM.

`Cn1c(O)c(C(=O)Nc2cccs2)c(=O)[nH]c1=S`: the TGI stood at 30.2 µM.

`NCC1(N2CCOCC2)C2CCCC21CO` (configuration not stated) returned a total growth inhibition concentration (TGI) greater than 100 µM.

The compound `CC#COP(=O)(OCC)OCC` gave a TGI greater than 100 µM.

On to `C=CCONC(=O)c1ccc(Cl)cc1`, for which the TGI is greater than 100 µM.

Compound `COc1cc(/C=C/C(=O)c2sc(-n3nc(-c4ccccc4)cc3-c3ccccc3)nc2C)ccc1O` displayed a TGI greater than 100 µM.

In the case of `CC(C)=CCCC1(C)C=Cc2c(c(C)cc3c2[nH]c2cc(O)ccc23)O1` (configuration not stated), the TGI is greater than 25 µM.

As to `COc1cc(NC(C)=O)c2[nH]c3c(C)cc(NC(C)=O)c(C)c3c2c1`, the TGI was greater than 100 µM.

`COc1cc(/C=C\c2ccccn2)cc(OC)c1OC` showed a TGI greater than 100 µM.

In turn, `O=P(O)(OCC(O)O)OCC(O)O` yielded a TGI greater than 100 µM.

`CCOC(=O)CSc1ccnc(=O)[nH]1` displayed a TGI greater than 100 µM.

As to `c1ccc(Nc2nnc(CSc3nc(-c4ccccc4)c(-c4ccccc4)[nH]3)s2)cc1`, the TGI is 25.6 µM.

For the origin of these results see PubChem BioAssay (NCI).
